According to PMC6934184, “Selective DNA-PKcs inhibition extends the therapeutic index of localized radiotherapy and chemotherapy” (The Journal of Clinical Investigation, 2019):

Molecular target: T1, RPS6KA1 (RSK1) (Homo sapiens, UniProt Q15418)
T1 construct: purchased Thermo Fisher Scientific (Life Technologies) SelectScreen
Test: SelectScreen Z'LYTE
Format: biochemical
Outline: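 SelectScreen broad panel; activity (Z'LYTE, Adapta) plus binding formats. ATP: Km app for CSF1R Z'LYTE; 10 for CAMK1 Adapta. Readout = % per kinase.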

T1 sequence (Q15418 whole entry): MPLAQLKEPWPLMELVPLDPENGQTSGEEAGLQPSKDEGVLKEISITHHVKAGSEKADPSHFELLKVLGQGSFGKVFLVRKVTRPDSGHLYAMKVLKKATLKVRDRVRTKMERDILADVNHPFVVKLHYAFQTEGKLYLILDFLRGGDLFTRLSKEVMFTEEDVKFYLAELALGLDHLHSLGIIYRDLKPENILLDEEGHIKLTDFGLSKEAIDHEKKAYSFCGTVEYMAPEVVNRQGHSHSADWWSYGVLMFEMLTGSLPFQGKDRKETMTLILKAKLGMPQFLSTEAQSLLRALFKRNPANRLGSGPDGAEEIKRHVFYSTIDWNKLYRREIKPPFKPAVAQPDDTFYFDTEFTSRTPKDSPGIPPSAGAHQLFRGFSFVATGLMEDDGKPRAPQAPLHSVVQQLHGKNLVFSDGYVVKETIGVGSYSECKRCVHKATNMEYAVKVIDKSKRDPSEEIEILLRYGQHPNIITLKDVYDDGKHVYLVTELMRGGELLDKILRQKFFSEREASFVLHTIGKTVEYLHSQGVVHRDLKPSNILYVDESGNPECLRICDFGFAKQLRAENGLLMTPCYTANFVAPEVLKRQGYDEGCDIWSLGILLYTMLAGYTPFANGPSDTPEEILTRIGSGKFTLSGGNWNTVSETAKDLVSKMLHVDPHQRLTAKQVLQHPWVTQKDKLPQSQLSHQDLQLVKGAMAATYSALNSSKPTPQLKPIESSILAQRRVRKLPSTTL

For `CN(C(=O)CN1CCOCC1)c1ccc2sc3c(-c4cccc5c(=O)cc(N6CC7CCC(C6)O7)oc45)cccc3c2c1` [NU5455], the inhibition at 1 µM was 5.7%.
